Results reported in patent US6472526B1, “Imidazole derivatives having an inhibitory activity for farnesyl transferase and process for preparation thereof” (LG Chemical Ltd., priority 1997, dated 2002).

Assays:
Ras farnesyl transferase [1] = molecular target: T1, Ras farnesyl transferase (Homo sapiens, UniProt P49354+P49356); assay: In vitro inhibitory activity for Ras farnesyl transferase, H-Ras substrate; type: biochemical
T1 construct: made in house
Protocol: In the present experiment, Ras farnesyl transferase produced by genetic recombination techniques according to the improved Pompliano's method (Pompliano et al., Biochemistry, 1992, 31, 3800) was used, and Ras substrate (Ras-CVLS) protein described in Korean Patent Appln. No. 97-14409 was used after it has been purified according to the known method (see, Chung et al., Biochimica et Biophysica Acta, 1992, 278, 1129).
The enzyme reaction was performed in 50 μl of 50 mM Sodium HEPES buffer solution containing 25 mM of potassium chloride, 25 mM of magnesium chloride, 10 mM of DTT and 50 μM of zinc chloride. 1.5 μM of Ras substrate protein, 0.15 μM of tritium-farnesylpyrophosphate and 4.5 nM of farnesyl transferase were used.
More specifically, in the initial step, farnesyl transferase was added to the above buffer solution, reaction was maintained for 30 minutes at 37° C. and then the reaction was stopped by adding 1 ml of ethanol solution containing 1M HCl. The formed precipitates were adsorbed to GF/B filter using Hopper harvestor(Hopper #FH 225V) for filter-binding, washed with ethanol, and then radioactivity of the dried filter was measured using LKB β counter. Enzyme titer was measured in the unsaturated state of substrate where the concentrations of Ras substrate protein and farnesyl transferase have quantitative relationship. The compound according to the present invention dissolved in dimethyl sulfoxide (DMSO) was added to the reaction solution in an amount of less than 5% of the total reaction solution, and then the enzyme inhibitory activity thereof was measured. The enzyme inhibitory activity was represented by percentage of the amount of farnesyl incorporated into the Ras substrate protein in the presence of the test compound to that in the absence of the test compound. IC50 of the test compound was defined as the concentration at which 50% of the enzyme activity was inhibited.

Ras farnesyl transferase [2] = molecular target: T1, Ras farnesyl transferase; assay: In vitro inhibitory activity for Ras farnesyl transferase, K-Ras substrate; type: biochemical
Ras farnesyl transferase [3] = molecular target: T2, Ras farnesyl transferase (Rattus norvegicus, UniProt Q02293+Q04631); assay: In vivo (cellular) inhibitory activity for Ras farnesyl transferase, Rat2 cell line transformed with fused protein of H-Ras substituted with polybasic lysine domain at C-terminus of K-Ras; type: cell-based
T2 construct: endogenous in cells; host or cells: Rat2 fibroblasts transformed with H-Ras or with an H-Ras/K-Ras C-terminus fusion
Protocol: (§1) In the present experiment, Rat2 cell line which expresses C-Harvey-Ras protein having transforming activity and Rat2 cell line (Korean patent application No. 97-14409) which is transformed with fused protein of H-Ras substituted with polybasic lysine domain at C-terminus of K-Ras were used. The experiment was performed by the modified Declue's method (Declue. J. E. et al., Cancer Research, 1991, 51, 712). Hereinafter, the experimental method will be described in more detail.
(§2) 3×10^5 cells of transformed Rat2 fibroblast cell line were sprayed on 60 mm cell cultivation dish and cultivated for 48 hours in a cell incubator at 37° C. and after 50% or more of density was reached, it was treated with the test compounds. The compound according to the present invention dissolved in dimethylsulfoxide (DMSO) was used. 1% concentration of dimethylsulfoxide was used in both control and test groups. After 4 hours from the treatment with the compound, methionine labeled with 150 μCi of radioactive isotope [^35S] per 1 ml of medium was added and after cultivating for 20 hours, the cells were, washed with physiological saline water. The cells were lysed using 1 ml of cold cell lysis buffer solution (50 mM of Sodium HEPES buffer solution containing 5mM of magnesium chloride, 1 mM of DTT, 1% NP 40, 1 mM of EDTA, 1 mM of PMSF, 2 μM of leupeptin, 2 μM of pepstatin A and 2 μM of antipain) and the supernatant wherein the cells were lysed was obtained by high-velocity centrifugation of 12,000 g×5 minutes. The amount of radioisotope in the supernatant was measured and standardized to obtain a quantitative result in immunoprecipitation reaction and then, Y13-259, a monoclonal antibody specifically binding to Ras protein (Furth, M. E. et al., J. Virol, 1982, 43, 294) was added and reacted for 15 hours at 4° C. Protein A(combined with goat anti-murine immunoglobulin antibody)-agarose suspension was added to the solution and reacted for 1 hour at 4° C. and then, to remove the unspecific binding product, immunoprecipitates were washed with a buffer solution (50 mM Tris chloride buffer solution containing 50 mM of sodium chloride, 0.5% of sodium dioxycolate, 0.5% of NP 40 and 0.1% of SDS). The precipitates were added to a buffer solution for electrophoresis and boiled and then, electrophoresis was performed using 13.5% of SDS polyacrylamide gel. After electrophoresis, the gel was fixed and dried. Then, the gel was exposed to X-ray film, developed printed. From the result of the experiment, intensities of band of in combined with or without farnesyl of Ras protein were measured, the concentration of the test compound inhibiting 50% of farnesyl bonding was defined as […], an in vivo Ras farnesyl transferase inhibitory activity.

Ras farnesyl transferase [4] = molecular target: T2, Ras farnesyl transferase; assay: In vivo (cellular) inhibitory activity for Ras farnesyl transferase, Rat2 cell line which expresses C-Harvey-Ras protein; type: cell-based
Protocol: as §1, §2

[5] = recombinant farnesyl transferase 4.5 nM, Ras substrate protein 1.5 μM, tritium-farnesylpyrophosphate 0.15 μM, 30 minutes at 37° C., read-out: H-Ras IC50
[6] = in vitro farnesyl transferase assay, K-Ras, read-out: K-Ras IC50
[7] = Rat2 cell line transformed with H-Ras fused with polybasic lysine domain of K-Ras C-terminus, concentration inhibiting 50% of farnesyl bonding, read-out: K-Ras CIC50
[8] = Rat2 cell line expressing C-Harvey-Ras, concentration inhibiting 50% of farnesyl bonding of Ras protein, read-out: H-Ras CIC50

Row | Molecule | IC50 (Ras farnesyl transferase [1]; [5]) | IC50 (Ras farnesyl transferase [2]; [6]) | IC50 (Ras farnesyl transferase [3]; [7]) | IC50 (Ras farnesyl transferase [4]; [8]) | IC50 (Ras farnesyl transferase [1]) | IC50 (Ras farnesyl transferase [2]) | IC50 (Ras farnesyl transferase [3]) | IC50 (Ras farnesyl transferase [4])
1 | COCCN(C)C(=O)c1cn(Cc2cncn2CCc2ccc(C)cc2)cc1-c1cccc2ccccc12 [Compound 37, 3-[N-(2-Methoxyethyl)-N-methyl]carbamoyl-1-[1-(4-methyl)phenethyl-1H-imidazol-5-yl]methyl-4-(naphthalen-1-yl)-1H-pyrrole] | 2 nM | 3 nM | 10000 to 50000 nM | 25 nM | – | – | – | –
2 | 1-[1-(4-Methoxybenzyl)-1H-imidazol-5-yl]methyl-3-[N-(2-methoxyethyl)-N-methyl]carbamoyl-4-(naphthalen-1-yl)-1H-pyrrole [Compound 129] | 3 nM | 4 nM | 10000 to 50000 nM | 25 nM | – | – | – | –
3 | Cc1ccc(CCn2cncc2Cn2cc(C(=O)N3CCN(C)CC3)c(-c3cccc4ccccc34)c2)cc1 [Compound 38, 1-[1-(4-Methyl)phenethyl-1H-imidazol-5-yl]methyl-3-[4-methylpiperazin-1-yl]carbonyl-4-(naphthalen-1-yl)-1H-pyrrole] | 2 nM | 4 nM | 10000 to 50000 nM | 25 nM | – | – | – | –
4 | O=C(c1ccc(-c2ccccc2)cc1)c1cn(Cc2c[nH]cn2)cc1-c1cccc2ccccc12 [Compound 66] | 120 nM | 100 to 10000 nM | 10000 to 100000 nM | 1000 to 50000 nM | – | – | – | –
5 | CN1CCN(C(=O)c2cn(Cc3cncn3CCc3ccc(Cl)cc3)cc2-c2cccc3ccccc23)CC1 [Compound 40] | 2 nM | 3 nM | 10000 to 50000 nM | 25 nM | – | – | – | –
6 | N#Cc1ccc(Cn2cncc2Cn2cc(C(=O)c3ccsc3)c(-c3cccc4ccccc34)c2)cc1 [Compound 74] | 10 nM | 10 to 100 nM | 10000 to 100000 nM | 100 to 1000 nM | – | – | – | –
7 | O=C(c1cccc(Br)c1)c1cn(Cc2c[nH]cn2)cc1-c1cccc2ccccc12 [Compound 48] | 150 nM | 10000 nM | 10000 to 100000 nM | 1000 to 50000 nM | – | – | – | –
8 | COc1ccc(Cn2cncc2Cn2cc(C(=O)N3CCN(C)CC3)c(-c3cccc4ccccc34)c2)cc1 [Compound 130, 1-[1-(4-Methoxybenzyl)-1H-imidazol-5-yl] methyl-3-(4-methylpiperazin-1-yl)carbonyl-4-(naphthalen-1-yl)-1H-pyrrole] | 2 nM | 3 nM | 10000 to 50000 nM | 25 nM | – | – | – | –
9 | Cc1cccc(C(=O)c2cn(Cc3c[nH]cn3)cc2-c2cccc3ccccc23)c1 [Compound 51] | 270 nM | 100 to 10000 nM | 10000 to 100000 nM | 1000 to 50000 nM | – | – | – | –
10 | CSCC[C@H](NC(=O)c1cn(CCCc2c[nH]cn2)cc1-c1cccc2ccccc12)C(=O)O [Compound 108] | 260 nM | 100 to 10000 nM | 10000 to 100000 nM | 1000 to 50000 nM | – | – | – | –
11 | O=C(c1ccc(F)cc1)c1cn(Cc2c[nH]cn2)cc1-c1cccc2ccccc12 [Compound 58] | 25 nM | 100 to 10000 nM | 10000 to 100000 nM | 1000 to 50000 nM | – | – | – | –
12 | CN1CCN(C(=O)c2cn(Cc3cncn3CCc3cccc(Cl)c3)cc2-c2cccc3ccccc23)CC1 [Compound 26, 1-[1-(3-Chloro)phenethyl-1H-imidazol-5-yl]methyl-3-[4-methylpiperazin-1-yl]carbonyl-4-(naphthalen-1-yl)-1H-pyrrole] | 2 nM | 3 nM | 10000 to 50000 nM | 15 nM | – | – | – | –
13 | O=C(c1nc(Cc2cnc[nH]2)oc1-c1cccc2ccccc12)N1CCOCC1 [Compound 143, 2-(1H-Imidazol-5-ylmethyl)-4-(morpholin-4-yl)carbonyl-5-(naphthalen-1-yl)oxazole] | 1200 nM | > 50000 nM | > 50000 nM | 20000 nM | – | – | – | –
14 | O=C(Nc1ccccc1)c1cn(Cc2c[nH]cn2)cc1-c1cccc2ccccc12 [Compound 82] | 400 nM | 100 to 10000 nM | 10000 to 100000 nM | 1000 to 50000 nM | – | – | – | –
15 | COCCN(C)C(=O)c1cn(Cc2cncn2CC2CCCCC2)cc1-c1cccc2ccccc12 [Compound 116, 1-(1-Cyclohexylmethyl-1H-imidazol-5-yl)methyl-3-[N-(2-methoxyethyl)-N-methyl]carbamoyl-4-(naphthalen-1-yl)-1H-pyrrole] | 4 nM | 62 nM | < 50000 nM | 30 nM | – | – | – | –
16 | COCCN(C)C(=O)c1cn(Cc2cncn2C(C)c2ccccc2)cc1-c1cccc2ccccc12 (stereo in doubt) [Compound 8, 3-[N-(2-Methoxyethyl)-N-methyl]carbamoyl-1-[1-((R)-α-methylbenzyl)-1H-imidazol-5-ylmethyl]-4-(naphthalen-1-yl)-1H-pyrrole] | 4 nM | 8 nM | 10000 to 50000 nM | 25 nM | – | – | – | –
17 | O=C(c1cn(Cc2c[nH]cn2)cc1-c1cccc2ccccc12)N1CCC(O)CC1 [Compound 91] | 2150 nM | 100 to 10000 nM | 10000 to 100000 nM | 1000 to 50000 nM | – | – | – | –
18 | COC(=O)[C@H](CCSC)NC(=O)c1cn(CCCc2c[nH]cn2)cc1-c1cccc2ccccc12 [Compound 107, (S)-1-[3-(1H-Imidazol-4-yl)propyl]-3-[1N-(1-methoxycarbonyl-3-methylthio)propyl]carbamoyl-4-(naphthalen-1-yl)-1H-pyrrole] | 10000 nM | 100 to 10000 nM | 10000 to 100000 nM | 1000 to 50000 nM | – | – | – | –
19 | O=C(c1cn(Cc2c[nH]cn2)cc1-c1cccc2ccccc12)c1cccc2ccccc12 [Compound 69] | – | – | – | – | 550 nM | 100 to 10000 nM | 10000 to 100000 nM | 1000 to 50000 nM
20 | CC(c1ccccc1)n1cncc1Cn1cc(C(=O)N2CCOCC2)c(-c2cccc3ccccc23)c1 (stereo in doubt) [Compound 9, 1-[1-((R)-α-Methylbenzyl)-1H-imidazol-5-ylmethyl]-3-(morpholin-4-yl)carbonyl-4-(naphthalen-1-yl)-1H-pyrrole] | 5 nM | 6.6 nM | 10000 to 50000 nM | 25 nM | – | – | – | –
21 | CN1CCN(C(=O)c2cn(Cc3cncn3CCc3ccc4ccccc4c3)cc2-c2cccc3ccccc23)CC1 [Compound 42, 3-[4-Methylpiperazin-1-yl]carbonyl-4-(naphthalen-1-yl)-1-{1-[2-(naphthalen-2-yl)ethyl]-1H-imidazol-5-yl}methyl-1H-pyrrole] | 4 nM | 3 nM | 10000 to 50000 nM | 15 nM | – | – | – | –
